Tests used:
phospho-p65 = experiment: Mouse model of preterm labour (LPS): placental phospho-p65 by western immunoblot; type: in vivo; details: gestation day 16 mice, 6 hours after intrauterine 250 μg LPS + 15d-PGJ2, p<0.05
Description: Relative concentrations of phospho-p65 in placental homogenates collected from gestation day 16 mice 6 hours after intrauterine injection of 250 μg LPS+vehicle or 250 μg LPS+[…] 15d-PGJ2. * denotes statistically significant difference (t-test (p<0.05)).
(§1) Surgery was performed on timed pregnant MF1 mice at day 16 of gestation. After deep maternal anaesthesia was attained, a minilaparotomy was performed in the lower abdomen. The uterine horns were exposed through the incision and preterm labour was induced by the intrauterine injection of 250 μg lipopolysaccharide (LPS, Sigma) into the gravid horn. This was immediately followed by injection of 4 μg […] (Cayman), or an equal volume of vehicle (methyl acetate), at the same site. The uterus was then returned to the abdomen and the fascia and skin were closed with continuous vicryl sutures.
(§2) Mice were sacrificed 6 hours after injection of LPS±15d-PGJ2. […]
(§3) Homogenate levels of Interlekin-1β (IL-1β) and tumour necrosis factor α (TNFα) were determined in placental lysates by ELISA (R and D systems) according to manufacturers instructions. Total protein concentrations were determined for each homogenate and IL-1β and TNFα levels were expressed as pg/mg total protein. […] Phosphorylated p65 (phospho-p65) was detected by western immunoblotting using a specific antibody (Santa Cruz) and quantified by densitometric analysis.

TNFα = experiment: Mouse model of preterm labour (LPS): placental TNFα by ELISA; type: in vivo; details: gestation day 16 mice, 6 hours after intrauterine LPS + 15d-PGJ2 vs LPS + vehicle
Description: as §1
Mice were sacrificed 6 hours after injection of LPS±15d-PGJ2. Placentae were washed in phosphate buffered saline (PBS), flash frozen in liquid nitrogen and stored at −80° C. until further processing. Fetuses were washed in PBS, then immediately fixed in 4% parafornaldellyde for 24 h and then stored in 70% ethanol until further processing. […]
as §3

IL-1β = experiment: Mouse model of preterm labour (LPS): placental IL-1β by ELISA; type: in vivo; details: gestation day 16 mice, 6 hours after intrauterine 250 μg LPS + 4 μg 15d-PGJ2, p<0.05
Description: Concentrations of IL-1β in placental homogenates collected from gestation day 16 mice 6 hours after intrauterine injection of 250 μg LPS+vehicle or 250 μg LPS+4 μg 15d-PGJ2. * denotes statistically significant difference (t-test (p<0.05)).
as §1, §2, §3

NF-κB = experiment: Western immunoblot of p65, p50, IκB in amnion cell extracts; type: cell-based, human; details: L−, L+ amnion cells; for IL-1β-induced p65 nuclear translocation: treated 2 h, IL-1β 15 min
Description: Western immunoblots of nuclear or cytosolic protein extracts from (A) myometrial cells, (B) L− amnion cells, and (C) L+ amnion cells treated with 15dPGJ2 or vehicle for 2 h±IL-1β stimulation (15 min). Blots probed with antibodies against p65, p50 or IκBα.
Placentae were obtained from patients at term either at elective Caesarean section prior to labour (L−) or following spontaneous labour onset and vaginal delivery (L+). Amnion cells were prepared as described in Bennett et al., (1989). Briefly, the amnion was separated from the placenta, washed 3× in PBS, cut into strips, and incubated in 0.5 mM EDTA in PBS for 15 min. The strips were washed in PBS 2× and digested with 2.5 mg/ml dispase in serum-free DMEM for 35 min at 37° C. The amnion was then shaken vigorously in DMEM, 10% FCS to dissociate the cells, the remaining strips discarded, and the cell suspension pelleted at 175 g for 10 min and cultured in DMEM, 10% FCS (Sigma), 1% L-glutamine, 1% penicillin-streptomycin.
Nuclear and cytosolic protein extracts were obtained from cultured amnion cells as described by Schreiber et al (1989). For nuclear/cytosolic fractionation, confluent cell monolayers were scraped and lysed using a buffer containing 10 mM HEPES, 10 mM KCl, 0.1 mM EDTA, 0.1 mM EGTA, 2 mM DTT, 1% (v/v) NP-40 and complete protease inhibitor tablets (CPIs, Roche), diluted to manufacturer's instructions. Cell lysates were incubated on ice for 10 min and NP-40 added to a final concentration of 1% (v/v). Lysates were vortexed for 10 secs and centrifuged for 30 secs at 4° C., 12000 g. The supernatants were retained as the cytosolic protein extracts. The pellets were resuspended in buffer containing 10 mM HEPES, 10 mM KCl, 0.1 mM EDTA, 0.1 mM EGTA, 2 mM DTT, 400 mM NaCl, 1% NP-40 (v/v) and CPIs. Samples were shaken vigorously for 15 min in an ice bath. The nuclear protein extracts were obtained in the supernatant following a 5 min centrifugation at 4° C., 12000 g.
Protein samples (20-70 μg) were mixed with Laemmli sample buffer (1:1) containing β-mercaptoethanol (5%), and boiled for 5 min. Proteins were then separated by SDS-PAGE (12-14% gels) and transferred onto PVDF membrane (Amersham Pharmacia Biotech). The membranes were blocked overnight in 5% non-fat milk prepared in PBS-T buffer, at 4° C. The blots were incubated with the primary antibody in 1% non-fat milk in PBS-T buffer for 1 h, and washed three times (10 min each) in PBS-T with vigorous shaking. The blots were then incubated with HRP-conjugated secondary antibody (diluted 1:2000 in 1% non-fat milk in PBS-T buffer) for 1 h and washed three times (10 min each) in PBS-T. Signal detection was achieved using enhanced chemi-luminescence (ECL plus system, Amersham Pharmacia Biotech) according to manufacturer's instructions.
30-50 μg protein extracts were subjected to SDS-PAGE and Western immuno-blotting. Secondary antibodies were IgG-HRP and ECL Plus detection kit (Amersham Pharmacia Biotech, Amersham Place, Little Chalfont, Bucks, HP7 9NA) was used for visualisation.

PPARα = details: Forman et al., 1995; cited from earlier work

## CCCCCC=CC=C1C(=O)C=C[C@@H]1CC=CCCCC(=O)O [15d-PGJ2, 15-deoxy-Δ^12,14prostaglandin J2]
phospho-p65
  phospho-p65 levels lower in proximal placentae vs LPS+vehicle: approximately 35%
TNFα
  TNFα levels in placentae according to drug treatment: not significantly altered
IL-1β
  Levels of IL-1β lower in proximal placentae vs LPS+vehicle: approximately 40%
NF-κB
  IL-1β-induced IκBα degradation: inhibition
  IL-1β-induced IκBβ degradation: inhibition
  IL-1β-induced p50 phosphorylation: inhibition
  IL-1β-induced p65 nuclear translocation: inhibited
NF-κB; listed as 15dPGJ2
  IL-1β-induced p65 nuclear translocation: inhibition
PPARα
  Transactivation of PPAR-α: more weakly than PPAR-γ
